According to ChEMBL document CHEMBL5252541, “Repurposing antipsychotic drugs into antifungal agents: Synergistic combinations of azoles and bromperidol derivatives in the treatment of various fungal infections” (Eur J Med Chem, 2017):
Converted amounts (≈) assume the structure as drawn. Values belong to the molecule of their own block, whether it stands above or below them.

Columns and labels:
Candida albicans [1] = assay: Antifungal activity against Candida albicans ATCC 64124 measured after 48 hrs by broth microdilution analysis; type: functional
Candida albicans [2] = assay: Antifungal activity against Candida albicans ATCC 10231 measured after 48 hrs by broth microdilution analysis; type: functional
Candida albicans [3] = assay: Synergistic antifungal activity against Candida albicans ATCC 10231 assessed as compound MIC measured after 48 hrs in presence of fluconazole by checkboard based microplate reader analysis; type: functional
Candida albicans [4] = assay: Synergistic antifungal activity against Candida albicans ATCC 64124 assessed as compound MIC measured after 48 hrs in presence of posaconazole by checkboard based microplate reader analysis; type: functional
Candida albicans [5] = assay: Synergistic antifungal activity against Candida albicans ATCC 10231 assessed as compound MIC measured after 48 hrs in presence of posaconazole by checkboard based microplate reader analysis; type: functional
Candida albicans [6] = assay: Synergistic antifungal activity against Candida albicans ATCC 64124 assessed as compound MIC measured after 48 hrs in presence of ketoconazole by checkboard based microplate reader analysis; type: functional
Candida albicans [7] = assay: Synergistic antifungal activity against Candida albicans ATCC 10231 assessed as compound MIC measured after 48 hrs in presence of ketoconazole by checkboard based microplate reader analysis; type: functional
Candida albicans [8] = assay: Synergistic antifungal activity against Candida albicans ATCC 64124 assessed as compound MIC measured after 48 hrs in presence of itraconazole by checkboard based microplate reader analysis; type: functional
Candida albicans [9] = assay: Synergistic antifungal activity against Candida albicans ATCC 10231 assessed as compound MIC measured after 48 hrs in presence of itraconazole by checkboard based microplate reader analysis; type: functional
Candida albicans [10] = assay: Synergistic antifungal activity against Candida albicans ATCC 64124 assessed as compound MIC measured after 48 hrs in presence of fluconazole by checkboard based microplate reader analysis; type: functional
Candida albicans [11] = assay: Antifungal activity against Candida albicans ATCC MYA-1237 measured after 48 hrs by broth microdilution analysis; type: functional
Nakaseomyces glabratus [12] = assay: Antifungal activity against Candida glabrata ATCC 2001 measured after 48 hrs by broth microdilution analysis; type: functional
Candida albicans [13] = assay: Synergistic antifungal activity against Candida albicans ATCC 10231 assessed as compound MIC measured after 48 hrs in presence of voriconazole by checkboard based microplate reader analysis; type: functional
Candida albicans [14] = assay: Synergistic antifungal activity against Candida albicans ATCC 64124 assessed as compound MIC measured after 48 hrs in presence of voriconazole by checkboard based microplate reader analysis; type: functional
Candida albicans [15] = assay: Additive antifungal activity against Candida albicans ATCC 10231 assessed as fractional inhibitory concentration index measured for 72 hrs in presence of fluconazole; type: functional
Candida albicans [16] = assay: Additive antifungal activity against Candida albicans ATCC 64124 assessed as fractional inhibitory concentration index measured for 72 hrs in presence of fluconazole; type: functional
Candida albicans [17] = assay: Additive antifungal activity against Candida albicans ATCC 10231 assessed as fractional inhibitory concentration index measured for 72 hrs in presence of itraconazole; type: functional
Candida albicans [18] = assay: Additive antifungal activity against Candida albicans ATCC 64124 assessed as fractional inhibitory concentration index measured for 72 hrs in presence of itraconazole; type: functional
Candida albicans [19] = assay: Additive antifungal activity against Candida albicans ATCC 64124 assessed as fractional inhibitory concentration index measured for 72 hrs in presence of ketoconazole; type: functional
Candida albicans [20] = assay: Partial synergistic antifungal activity against Candida albicans ATCC 10231 assessed as fractional inhibitory concentration index measured for 72 hrs in presence of posaconazole; type: functional
Candida albicans [21] = assay: Synergistic antifungal activity against Candida albicans ATCC 64124 assessed as fractional inhibitory concentration index measured for 72 hrs in presence of posaconazole; type: functional
Candida albicans [22] = assay: Partial synergistic antifungal activity against Candida albicans ATCC 10231 assessed as fractional inhibitory concentration index measured for 72 hrs in presence of voriconazole; type: functional
Candida albicans [23] = assay: Partial synergistic antifungal activity against Candida albicans ATCC 64124 assessed as fractional inhibitory concentration index measured for 72 hrs in presence of voriconazole; type: functional
Candida albicans [24] = assay: Antifungal activity against Candida albicans ATCC MYA-1003 measured after 48 hrs by broth microdilution analysis; type: functional
Candida albicans [25] = assay: Antifungal activity against Candida albicans ATCC MYA-2310 measured after 48 hrs by broth microdilution analysis; type: functional
Candida albicans [26] = assay: Antifungal activity against Candida albicans ATCC MYA-2876 measured after 48 hrs by broth microdilution analysis; type: functional
Candida albicans [27] = assay: Antifungal activity against Candida albicans ATCC 90819 measured after 48 hrs by broth microdilution analysis; type: functional
Aspergillus terreus [28] = assay: Antifungal activity against Aspergillus terreus ATCC MYA-3633 measured after 48 hrs by broth microdilution analysis; type: functional
Candida albicans [29] = assay: Additive antifungal activity against Candida albicans ATCC MYA-2310 assessed as fractional inhibitory concentration index measured for 72 hrs in presence of posaconazole; type: functional
Candida albicans [30] = assay: Additive antifungal activity against Candida albicans ATCC MYA-2310 assessed as fractional inhibitory concentration index measured for 72 hrs in presence of voriconazole; type: functional
Candida albicans [31] = assay: Additive antifungal activity against Candida albicans ATCC MYA-2876 assessed as fractional inhibitory concentration index measured for 72 hrs in presence of posaconazole; type: functional
Candida albicans [32] = assay: Additive antifungal activity against Candida albicans ATCC MYA-2876 assessed as fractional inhibitory concentration index measured for 72 hrs in presence of voriconazole; type: functional
Candida albicans [33] = assay: Additive antifungal activity against Candida albicans ATCC 90819 assessed as fractional inhibitory concentration index measured for 72 hrs in presence of posaconazole; type: functional
Candida albicans [34] = assay: Additive antifungal activity against Candida albicans ATCC 90819 assessed as fractional inhibitory concentration index measured for 72 hrs in presence of voriconazole; type: functional
Nakaseomyces glabratus [35] = assay: Additive antifungal activity against Candida glabrata ATCC 2001 assessed as fractional inhibitory concentration index measured for 72 hrs in presence of posaconazole; type: functional
Nakaseomyces glabratus [36] = assay: Additive antifungal activity against Candida glabrata ATCC 2001 assessed as fractional inhibitory concentration index measured for 72 hrs in presence of voriconazole; type: functional
Aspergillus terreus [37] = assay: Additive antifungal activity against Aspergillus terreus ATCC MYA-3633 assessed as fractional inhibitory concentration index measured for 72 hrs in presence of posaconazole; type: functional
Aspergillus terreus [38] = assay: Additive antifungal activity against Aspergillus terreus ATCC MYA-3633 assessed as fractional inhibitory concentration index measured for 72 hrs in presence of voriconazole; type: functional
Candida albicans [39] = assay: Additive antifungal activity against Candida albicans MYA-1003 assessed as fractional inhibitory concentration index measured for 72 hrs in presence of voriconazole
Candida albicans [40] = assay: Additive antifungal activity against Candida albicans MYA-1003 assessed as fractional inhibitory concentration index measured for 72 hrs in presence of posaconazole
Candida albicans [41] = assay: Partial synergistic antifungal activity against Candida albicans ATCC 10231 assessed as fractional inhibitory concentration index measured for 72 hrs in presence of ketoconazole; type: functional
Candida albicans [42] = assay: Partial synergistic antifungal activity against Candida albicans ATCC 64124 assessed as fractional inhibitory concentration index measured for 72 hrs in presence of ketoconazole; type: functional
Candida albicans [43] = assay: Additive antifungal activity against Candida albicans ATCC MYA-1237 assessed as fractional inhibitory concentration index measured for 72 hrs in presence of posaconazole; type: functional
Candida albicans [44] = assay: Additive antifungal activity against Candida albicans ATCC MYA-1237 assessed as fractional inhibitory concentration index measured for 72 hrs in presence of voriconazole; type: functional
Candida albicans [45] = assay: Partial synergistic antifungal activity against Candida albicans ATCC MYA-1003 assessed as fractional inhibitory concentration index measured for 72 hrs in presence of posaconazole; type: functional
Candida albicans [46] = assay: Partial synergistic antifungal activity against Candida albicans ATCC MYA-1003 assessed as fractional inhibitory concentration index measured for 72 hrs in presence of voriconazole; type: functional
Candida albicans [47] = assay: Synergistic antifungal activity against Candida albicans ATCC 90819 assessed as fractional inhibitory concentration index measured for 72 hrs in presence of voriconazole; type: functional
Candida albicans [48] = assay: Partial synergistic antifungal activity against Candida albicans MYA-2876 assessed as fractional inhibitory concentration index measured for 72 hrs in presence of posaconazole; type: functional
Candida albicans [49] = assay: Partial synergistic antifungal activity against Candida albicans ATCC 90819 assessed as fractional inhibitory concentration index measured for 72 hrs in presence of posaconazole; type: functional
Candida albicans [50] = assay: Synergistic antifungal activity against Candida albicans ATCC 64124 assessed as ketoconazole MIC measured after 48 hrs by checkboard based microplate reader analysis; type: functional
Candida albicans [51] = assay: Synergistic antifungal activity against Candida albicans ATCC 10231 assessed as ketoconazole MIC measured after 48 hrs by checkboard based microplate reader analysis; type: functional
Candida albicans [52] = assay: Additive antifungal activity against Candida albicans ATCC 10231 assessed as fractional inhibitory concentration index measured for 72 hrs in presence of ketoconazole; type: functional

MIC (Candida albicans [1]): > 64 µg/mL
MIC (Candida albicans [2]): > 64 µg/mL
MIC (Candida albicans [3]): 64 µg/mL
MIC (Candida albicans [4]): 8 µg/mL
MIC (Candida albicans [5]): 16 µg/mL
MIC (Candida albicans [6]): 32 µg/mL
MIC (Candida albicans [7]): > 64 µg/mL
MIC (Candida albicans [8]): > 64 µg/mL
MIC (Candida albicans [9]): 64 µg/mL
MIC (Candida albicans [10]): > 64 µg/mL
MIC (Candida albicans [11]): > 64 µg/mL
MIC (Nakaseomyces glabratus [12]): > 64 µg/mL
MIC (Candida albicans [13]): 8 µg/mL
MIC (Candida albicans [14]): 32 µg/mL
MIC (Candida albicans [24]): > 64 µg/mL
MIC (Candida albicans [25]): > 64 µg/mL
MIC (Candida albicans [26]): > 64 µg/mL
MIC (Candida albicans [27]): > 64 µg/mL
MIC (Aspergillus terreus [28]): > 64 µg/mL
Structure (SMILES): O=C(CCCN1CCC(O)(c2ccc(Br)cc2)CC1)c1ccccc1
fractional inhibitory concentration index (FICI) (Candida albicans [15]): 2
fractional inhibitory concentration index (FICI) (Candida albicans [16]): 2
fractional inhibitory concentration index (FICI) (Candida albicans [17]): 1.5
fractional inhibitory concentration index (FICI) (Candida albicans [18]): 2
fractional inhibitory concentration index (FICI) (Candida albicans [19]): 1
fractional inhibitory concentration index (FICI) (Candida albicans [20]): 0.75
fractional inhibitory concentration index (FICI) (Candida albicans [21]): 0.19
fractional inhibitory concentration index (FICI) (Candida albicans [22]): 0.63
fractional inhibitory concentration index (FICI) (Candida albicans [23]): 0.75
fractional inhibitory concentration index (FICI) (Candida albicans [29]): 1.01
fractional inhibitory concentration index (FICI) (Candida albicans [30]): 2
fractional inhibitory concentration index (FICI) (Candida albicans [31]): 2
fractional inhibitory concentration index (FICI) (Candida albicans [32]): 2
fractional inhibitory concentration index (FICI) (Candida albicans [33]): 1
fractional inhibitory concentration index (FICI) (Candida albicans [34]): 1
fractional inhibitory concentration index (FICI) (Nakaseomyces glabratus [35]): 0.56
fractional inhibitory concentration index (FICI) (Nakaseomyces glabratus [36]): 1.01
fractional inhibitory concentration index (FICI) (Aspergillus terreus [37]): 1.25
fractional inhibitory concentration index (FICI) (Aspergillus terreus [38]): 2
fractional inhibitory concentration index (FICI) (Candida albicans [39]): 1.06
fractional inhibitory concentration index (FICI) (Candida albicans [40]): 1.03

MIC (Candida albicans [1]): > 32 µg/mL
MIC (Candida albicans [2]): > 32 µg/mL
MIC (Candida albicans [3]): 16 µg/mL
MIC (Candida albicans [4]): 4 µg/mL
MIC (Candida albicans [5]): 4 µg/mL
MIC (Candida albicans [6]): 0.5 µg/mL
MIC (Candida albicans [7]): 16 µg/mL
MIC (Candida albicans [8]): > 32 µg/mL
MIC (Candida albicans [9]): > 32 µg/mL
MIC (Candida albicans [10]): > 32 µg/mL
MIC (Candida albicans [11]): > 32 µg/mL
MIC (Nakaseomyces glabratus [12]): > 32 µg/mL
MIC (Candida albicans [13]): 16 µg/mL
MIC (Candida albicans [14]): 16 µg/mL
MIC (Candida albicans [24]): > 32 µg/mL
MIC (Candida albicans [25]): > 32 µg/mL
MIC (Candida albicans [26]): > 32 µg/mL
MIC (Candida albicans [27]): > 32 µg/mL
MIC (Aspergillus terreus [28]): > 32 µg/mL
Structure (SMILES): O=C(CCCN1CCC(O)(c2ccc(Br)cc2)CC1)c1ccc(Cl)cc1
fractional inhibitory concentration index (FICI) (Candida albicans [15]): 1.5
fractional inhibitory concentration index (FICI) (Candida albicans [16]): 2
fractional inhibitory concentration index (FICI) (Candida albicans [17]): 2
fractional inhibitory concentration index (FICI) (Candida albicans [18]): 2
fractional inhibitory concentration index (FICI) (Candida albicans [21]): 0.19
fractional inhibitory concentration index (FICI) (Candida albicans [22]): 0.75
fractional inhibitory concentration index (FICI) (Candida albicans [23]): 0.63
fractional inhibitory concentration index (FICI) (Candida albicans [41]): 0.75
fractional inhibitory concentration index (FICI) (Candida albicans [42]): 0.52
fractional inhibitory concentration index (FICI) (Candida albicans [43]): 1.02
fractional inhibitory concentration index (FICI) (Candida albicans [44]): 1
fractional inhibitory concentration index (FICI) (Candida albicans [30]): 1
fractional inhibitory concentration index (FICI) (Candida albicans [32]): 1
fractional inhibitory concentration index (FICI) (Nakaseomyces glabratus [35]): 2
fractional inhibitory concentration index (FICI) (Nakaseomyces glabratus [36]): 2
fractional inhibitory concentration index (FICI) (Aspergillus terreus [37]): 2
fractional inhibitory concentration index (FICI) (Aspergillus terreus [38]): 2
fractional inhibitory concentration index (FICI) (Candida albicans [45]): 0.53
fractional inhibitory concentration index (FICI) (Candida albicans [46]): 0.75
fractional inhibitory concentration index (FICI) (Candida albicans [47]): 0.31
fractional inhibitory concentration index (FICI) (Candida albicans [48]): 0.52
fractional inhibitory concentration index (FICI) (Candida albicans [49]): 0.52
fractional inhibitory concentration index (FICI) (Candida albicans [39]): 0.75

Structure (SMILES): CC(=O)N1CCN(c2ccc(OCC3COC(Cn4ccnc4)(c4ccc(Cl)cc4Cl)O3)cc2)CC1 (configuration not stated) [KETOCONAZOLE]
MIC (Candida albicans [1]): 8 µg/mL (≈ 15.1 µM)
MIC (Candida albicans [2]): 1 µg/mL (≈ 1.88 µM)
MIC (Candida albicans [50]): 4 µg/mL
MIC (Candida albicans [51]): 0.5 µg/mL
fractional inhibitory concentration index (FICI) (Candida albicans [52]): 2
